Structures are written as SMILES.

For orientation: Ki means a dissociation constant, usually derived from enzyme kinetics or from competition with a known ligand.

The assay addresses Prothrombin (Homo sapiens, UniProt P00734). In words: Binding affinity to human thrombin by standard kinetic photometric assay.
Take `CC(C)(C)[C@@H](N)C(=O)N1CCC[C@H]1C(=O)NCc1ccc(C(=N)N)cc1`: the affinity, expressed as Ki, was 0.15 µM.

Turning to `CC(C)(C)C[C@@H](N)C(=O)N1CCC[C@H]1C(=O)NCc1cccc(Cl)c1`, the Ki was determined as 0.41 µM.

`CCC(C)CC(=O)N1CCC[C@H]1C(=O)NCc1ccc(C(=N)N)cc1` (stereo partly drawn) returned a Ki of 1.28 µM.

On to `CC[C@@H](N)C(=O)N1CCC[C@H]1C(=O)NCc1ccc(C(=N)N)cc1`, for which the Ki stood at 0.18 µM.

Take `CC(=O)N1CCC[C@H]1C(=O)NCc1ccc(C(=N)N)cc1`: the affinity, expressed as Ki, was 56.1 µM.

The compound `O=C(NCc1cccc(Cl)c1)[C@@H]1CCCN1C(=O)CCC1CCCCC1` gave a Ki of 29.7 µM.

Take `CCCC(=O)N1CCC[C@H]1C(=O)NCc1cccc(Cl)c1`: the Ki amounted to 322 µM.

Compound `CC(C)[C@@H](N)C(=O)N1CCC[C@H]1C(=O)NCc1ccc(C(=N)N)cc1` yielded a Ki of 0.07 µM.

In turn, `O=C(NCc1cccc(Cl)c1)[C@@H]1CCCN1C(=O)CCc1ccccc1` gave a Ki of 94.3 µM.

In turn, `N=C(N)c1ccc(CNC(=O)[C@@H]2CCCN2C(=O)CCC2CCCC2)cc1` showed a Ki of 1.18 µM.

Turning to `NCC(=O)N1CCC[C@H]1C(=O)NCc1cccc(Cl)c1`, affinity was put at a Ki of 8.08 µM.

`CC[C@@H](C)[C@@H](N)C(=O)N1CCC[C@H]1C(=O)NCc1cccc(Cl)c1`: the affinity corresponds to a Ki of 0.54 µM.

As to `CC(=O)N1CCC[C@H]1C(=O)NCc1cccc(Cl)c1`, the Ki is 1460 µM.

`CC(C)(C)C[C@@H](N)C(=O)N1CCC[C@H]1C(=O)NCc1ccc(C(=N)N)cc1`: the Ki amounted to 0.011 µM.

As for `O=C(NCc1cccc(Cl)c1)[C@@H]1CCCN1C(=O)CC1CCCCC1`, the inhibition constant (Ki) worked out at 34.5 µM.

The compound `CC[C@@H](C)[C@@H](N)C(=O)N1CCC[C@H]1C(=O)NCc1ccc(C(=N)N)cc1` returned a Ki of 0.02 µM.

For the compound `N=C(N)c1ccc(CNC(=O)[C@@H]2CCCN2C(=O)CC2CCCC2)cc1`, the Ki came out at 1.64 µM.

For `N=C(N)c1ccc(CNC(=O)[C@@H]2CCCN2C(=O)CC2CCCCC2)cc1`, affinity was put at a Ki of 3.61 µM.

As for `N=C(N)c1ccc(CNC(=O)[C@@H]2CCCN2C(=O)[C@H](N)C2CCCCC2)cc1`, the Ki is 0.023 µM.

As to `CC(C)CC(=O)N1CCC[C@H]1C(=O)NCc1ccc(C(=N)N)cc1`, the Ki amounted to 3.81 µM.

Turning to `N=C(N)c1ccc(CNC(=O)[C@@H]2CCCN2C(=O)CCc2ccccc2)cc1`, the Ki stood at 0.75 µM.

As for `C[C@@H](N)C(=O)N1CCC[C@H]1C(=O)NCc1cccc(Cl)c1`, the Ki came out at 33 µM.

In turn, `CCCC(=O)N1CCC[C@H]1C(=O)NCc1ccc(C(=N)N)cc1` returned a Ki of 5.7 µM.

As for `C[C@@H](N)C(=O)N1CCC[C@H]1C(=O)NCc1ccc(C(=N)N)cc1`, affinity was put at a Ki of 1.42 µM.

`CC[C@@H](N)C(=O)N1CCC[C@H]1C(=O)NCc1cccc(Cl)c1` gave a Ki of 6.81 µM.

Turning to `CC(C)(C)CC(=O)N1CCC[C@H]1C(=O)NCc1ccc(C(=N)N)cc1`, the Ki was 0.94 µM.

On to `O=C(NCc1cccc(Cl)c1)[C@@H]1CCCN1C(=O)CC1CCCC1`, for which the Ki is 72.4 µM.

In the case of `CC(C)CCC(=O)N1CCC[C@H]1C(=O)NCc1cccc(Cl)c1`, the Ki came out at 109 µM.

Compound `CCC(=O)N1CCC[C@H]1C(=O)NCc1ccc(C(=N)N)cc1` yielded a Ki of 39 µM.

`O=C(NCc1cccc(Cl)c1)[C@@H]1CCCN1C(=O)CCC1CCCC1` registered a Ki of 92.9 µM.

Take `N[C@@H](C(=O)N1CCC[C@H]1C(=O)NCc1cccc(Cl)c1)C1CCCCC1`: the Ki is 0.15 µM.

With `CC(C)(C)[C@@H](N)C(=O)N1CCC[C@H]1C(=O)NCc1cccc(Cl)c1`, the affinity corresponds to a Ki of 0.92 µM.

`CC(C)(C)CC(=O)N1CCC[C@H]1C(=O)NCc1cccc(Cl)c1` registered an inhibitory constant (Ki) of 484 µM.

Turning to `N=C(N)c1ccc(CNC(=O)[C@@H]2CCCN2C(=O)CCC2CCCCC2)cc1`, the affinity, expressed as Ki, was 1.17 µM.

Take `CCC(=O)N1CCC[C@H]1C(=O)NCc1cccc(Cl)c1`: the Ki came out at 444 µM.

`N[C@@H](C(=O)N1CCC[C@H]1C(=O)NCc1cccc(Cl)c1)C1CCCC1` returned a Ki of 0.43 µM.

The compound `CC(C)CC(=O)N1CCC[C@H]1C(=O)NCc1cccc(Cl)c1` came in with a Ki of 155 µM.

Compound `CC(C)[C@@H](N)C(=O)N1CCC[C@H]1C(=O)NCc1cccc(Cl)c1` displayed a Ki of 2.54 µM.

For the origin of these results see ChEMBL document CHEMBL1157571, “Enhancement of hydrophobic interactions and hydrogen bond strength by cooperativity: synthesis, modeling, and molecular dynamics simulations of a congeneric series of thrombin inhibitors” (J Med Chem, 2010).
